Source: paper PMC9127750, “Structure-based design of CDC42 effector interaction inhibitors for the treatment of cancer” (Cell reports, 2022)

Test system: WM3248 melanoma cells, 486 antibodies
Experiment: Reverse phase protein arrays (RPPA);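 as to RPPA ACC1.R.C: ratio of treated to vehicle (0 µM) normalized linear protein signal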;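 as to RPPA AMPK.a2 pS345.R.V: ratio of treated to vehicle (0 µM) normalized linear protein signal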;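 as to RPPA AMPKa pT172.R.C: ratio of treated to vehicle (0 µM) normalized linear protein signal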;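 as to RPPA ASNS.R.V: ratio of treated to vehicle (0 µM) normalized linear protein signal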;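 as to RPPA Akt1.R.V: ratio of treated to vehicle (0 µM) normalized linear protein signal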;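 as to RPPA Atg5.R.C: ratio of treated to vehicle (0 µM) normalized linear protein signal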;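 as to RPPA Bim.R.V: ratio of treated to vehicle (0 µM) normalized linear protein signal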
Type: cell-based, Human
Settings: 20 uM
Description: Pellets were snap frozen in liquid nitrogen and shipped to MD Anderson Cancer Center core RPPA facility for RPPA analysis (Table S5). Three biological replicates for each sample were generated.
Nomenclatures on the RPPA heatmaps: name_of_antibody.species_of_antibody.status_of_antibody. V - antibody validated; C - validation of antibody in progress; Q - antibody nonspecific; E – under evaluation; antibodies raised in M - mouse, G - goat, R - rabbit, or T - rat.

Structure (SMILES): CN(C)c1cccc(Nc2cc(-c3ccccc3)nc(C3CCNCC3)n2)c1 [ARN22089, N1,N1-dimethyl-N3-(6-phenyl-2-(piperidin-4-yl)pyrimidin-4-yl)benzene-1,3-diamine]
- RPPA level HSP70.R.C (Average): 1.160
- RPPA level Hexokinase.I.R.C (Average): 1.048
- RPPA level Hexokinase.II.R.V (Average): 0.963
- RPPA level Hif.1αR.C (Average): 0.904
- RPPA level Histone.H3.R.V (Average): 5.173
- RPPA level Histone.H3_pS10.R.V (Average): 2.026
- RPPA level IDO.R.C (Average): 1.014
- RPPA level IGF1R_pY1135_Y1136.R.V (Average): 0.992
- RPPA level IGFBP2.R.V (Average): 0.899
- RPPA level IGFBP3.M.V (Average): 0.907
- RPPA level IGFRb.R.C (Average): 1.146
- RPPA level IL.6.R.C (Average): 1.008
- RPPA level IMP3.R.C (Average): 1.016
- RPPA level INPP4b.R.C (Average): 0.905
- RPPA level IR.b.R.C (Average): 1.149
- RPPA level IRF.1.R.V (Average): 0.954
- RPPA level IRF.3.R.V (Average): 0.948
- RPPA level IRS1.R.V (Average): 1.105
- RPPA level IRS2.R.C (Average): 1.211
- RPPA level JAB1.M.C (Average): 0.972
- RPPA level JNK2.R.V (Average): 0.925
- RPPA level Jagged1.R.V (Average): 1.085
- RPPA level KAP1.R.V (Average): 1.034
- RPPA level KEAP1.R.V (Average): 0.960
- RPPA level LAD1.R.V (Average): 1.019
- RPPA level LC3A.B.R.C (Average): 1.119
- RPPA level LCN2.R.V (Average): 1.461
- RPPA level LDHA.R.C (Average): 0.979
- RPPA level Lck.R.V (Average): 1.187
- RPPA level Lyn.R.V (Average): 1.058
- RPPA level MACC1.R.V (Average): 1.008
- RPPA level MAPK_pT202_Y204.R.C (Average): 0.677
- RPPA level MCT4.R.V (Average): 0.896
- RPPA level MDM2_pS166.R.V (Average): 1.230
- RPPA level MEK1.R.V (Average): 2.341
- RPPA level MEK2.R.V (Average): 1.026
- RPPA level MERIT40.R.C (Average): 0.895
- RPPA level MERIT40_pS29.R.V (Average): 0.991
- RPPA level METTL3.R.V (Average): 1.155
- RPPA level MIF.R.C (Average): 0.950
- RPPA level MIG6.R.V (Average): 0.989
- RPPA level MITF.R.V (Average): 1.031
- RPPA level MLH1.M.V (Average): 0.887
- RPPA level MLKL.R.V (Average): 0.867
- RPPA level MMP2.R.V (Average): 0.982
- RPPA level MMP14.R.V (Average): 1.321
- RPPA level MR1.M.C (Average): 1.026
- RPPA level MRAP.R.C (Average): 1.126
- RPPA level MSH2.R.C (Average): 0.913
- RPPA level MSH6.R.C (Average): 1.164
- RPPA level MSI2.R.C (Average): 1.099
- RPPA level MTCO1.M.V (Average): 1.031
- RPPA level MTSS1.M.C (Average): 0.981
- RPPA level Mcl.1.R.V (Average): 0.838
- RPPA level Melanoma.gp100.R.C (Average): 1.007
- RPPA level Merlin.R.C (Average): 1.156
- RPPA level Midkine.R.V (Average): 0.970
- RPPA level Mitofusin.1.R.V (Average): 0.952
- RPPA level Mitofusin.2.R.V (Average): 0.892
- RPPA level Mnk1.R.V (Average): 0.957
- RPPA level mTOR.R.V (Average): 0.941
- RPPA level mTOR_pS2448.R.C (Average): 0.914
- c.Jun_pS73.R.V RPPA level (Average): 0.970
- c.Kit.R.V RPPA level (Average): 1.141
- c.Met_pY1234_Y1235.R.V RPPA level (Average): 1.064
- cGAS.R.V RPPA level (Average): 1.063
- cdc2_pY15.R.C RPPA level (Average): 1.101
- cdc25C.R.V RPPA level (Average): 0.883
- RPPA ACC1.R.C (D.1): 0.904
- RPPA ACC_pS79.R.V (D.1): 1.061
- RPPA ACLY_pS455.R.V (D.1): 0.944
- RPPA ACSL1.R.V (D.1): 1.054
- RPPA ACVRL1.R.C (D.1): 1.049
- RPPA ADAR1.M.V (D.1): 1.103
- RPPA ALKBH5.R.V (D.1): 1.309
- RPPA AMPK.a2_pS345.R.V (D.1): 0.933
- RPPA AMPKa.R.C (D.1): 1.010
- RPPA AMPKa_pT172.R.C (D.1): 1.099
- RPPA ARID1A.R.C (D.1): 2.023
- RPPA ASNS.R.V (D.1): 0.909
- RPPA ATM.R.V (D.1): 0.752
- RPPA ATP5A.M.C (D.1): 1.056
- RPPA ATP5H.R.V (D.1): 1.455
- RPPA ATR.R.V (D.1): 1.004
- RPPA ATRX.R.C (D.1): 0.831
- RPPA AceCS1.R.V (D.1): 1.063
- RPPA Akt1.R.V (D.1): 0.712
- RPPA Akt1_pS473.R.V (D.1): 0.750
- RPPA Akt2.R.V (D.1): 0.746
- RPPA Akt2_pS474.R.C (D.1): 0.847
- RPPA Akt.R.V (D.1): 0.884
- RPPA Akt_pS473.R.V (D.1): 0.449
- RPPA Ambra1_pS52.R.C (D.1): 1.082
- RPPA Annexin.I.M.V (D.1): 0.994
- RPPA Annexin.VII.M.V (D.1): 1.057
- RPPA Atg4B.R.C (D.1): 0.789
- RPPA Atg5.R.C (D.1): 1.025
- RPPA Atg7.R.V (D.1): 0.657
- RPPA Aurora.A.R.C (D.1): 1.945
- RPPA Aurora.ABC_pT288_pT232_pT198.R.C (D.1): 0.842
- RPPA Aurora.B.R.V (D.1): 1.775
- RPPA Axl.R.V (D.1): 0.594
- RPPA B7.H3.R.C (D.1): 0.996
- RPPA B7.H4.R.C (D.1): 0.838
- RPPA B.Raf.R.C (D.1): 0.786
- RPPA B.Raf_pS445.R.V (D.1): 0.752
- RPPA BAP1.M.V (D.1): 1.051
- RPPA BCL2A1.R.V (D.1): 0.907
- RPPA BMK1.Erk5_pT218_Y220.R.V (D.1): 1.016
- RPPA BRCA1.M.C (D.1): 1.165
- RPPA BRD4.R.V (D.1): 1.680
- RPPA Bad_pS112.R.V (D.1): 0.993
- RPPA Bak.R.C (D.1): 1.006
- RPPA Bcl2.R.C (D.1): 1.280
- RPPA Bcl.xL.R.V (D.1): 0.996
- RPPA Beclin.R.C (D.1): 1.111
- RPPA BiP.GRP78.M.C (D.1): 1.051
- RPPA Bid.R.C (D.1): 1.015
- RPPA Bim.R.V (D.1): 1.098
- RPPA X4E.BP1.R.V (D.1): 0.866
- RPPA X4E.BP1_pS65.R.V (D.1): 0.834
- RPPA X4E.BP1_pT37_T46.R.V (D.1): 0.918
- RPPA X14.3.3.zeta.R.V (D.1): 1.017
- RPPA X14.3.3βR.V (D.1): 1.192
- RPPA X53BP1.R.V (D.1): 1.055
- RPPA b.Actin.R.C (D.1): 1.239
- RPPA b.Catenin.R.V (D.1): 1.006
- RPPA b.Catenin_pT41_S45.R.V (D.1): 1.014
- RPPA c.Abl.R.V (D.1): 0.991
- RPPA c.Abl_pY412.R.C (D.1): 0.922
- RPPA c.IAP2.R.C (D.1): 1.019
- RPPA PREX1.R.V Average (average of 3): 0.950
- RPPA PTEN.R.V Average (average of 3): 1.082
- RPPA PTPN12.R.V Average (average of 3): 1.211
- RPPA PYGB.R.V Average (average of 3): 1.080
- RPPA PYGM.M.C Average (average of 3): 0.983
- RPPA Puma.R.C Average (average of 3): 1.011
- RPPA RBM15.R.V Average (average of 3): 0.995
- RPPA RIP3.R.C Average (average of 3): 0.996
- RPPA RIP.R.C Average (average of 3): 1.022
- RPPA RPA32.R.V Average (average of 3): 1.078
- RPPA RPA32_pS4_S8.R.C Average (average of 3): 1.531
- RPPA RRM1.R.C Average (average of 3): 0.946
- RPPA RRM2.R.C Average (average of 3): 0.922
- RPPA RSK1.R.V Average (average of 3): 0.941
- RPPA RSK.R.C Average (average of 3): 0.973
- RPPA Rab11.R.C Average (average of 3): 1.059
- RPPA Rad23A.R.C Average (average of 3): 0.946
- RPPA Rad50.R.V Average (average of 3): 1.053
- RPPA Rad51.R.C Average (average of 3): 0.940
- RPPA Raptor.R.V Average (average of 3): 0.967
- RPPA Rb.M.Q Average (average of 3): 0.977
- RPPA Rb_pS807_S811.R.V Average (average of 3): 0.907
- RPPA Rheb.M.C Average (average of 3): 1.147
- RPPA Rictor.R.C Average (average of 3): 1.017
- RPPA Rictor_pT1135.R.V Average (average of 3): 1.076
- RPPA S6.M.V Average (average of 3): 0.982
- RPPA S6_pS235_S236.R.V Average (average of 3): 0.339
- RPPA S6_pS240_S244.R.V Average (average of 3): 0.423
- RPPA SCD.M.V Average (average of 3): 0.961
- RPPA SDHA.R.V Average (average of 3): 1.098
- RPPA SF2.R.V Average (average of 3): 1.008
- RPPA SFRP1.R.V Average (average of 3): 0.986
